Consider 65 molecules from patent US11479561B2, “Tetrahydroisoquinoline derivatives” (Cytokinetics, Incorporated, priority 2016, dated 2022).

The experiment deals with rabbit skeletal myofibrils (approximately 90% fast fibers). Kind of experiment: Activation of fast skeletal myofibrils (PUMA coupled-enzyme ATPase assay). The class given is biochemical. To be noted: concentration at which the compound increased the enzymatic activity by 40%; calcium level pCa25. The procedure:
Preparation of fast skeletal myofibrils: Rabbit skeletal myofibrils were prepared based upon the method of Herrmann et al. (Biochem. 32(28):7255-7263(1993). Myofibrils were prepared from rabbit psoas muscle purchased from Pel-Freez Biologicals (Arkansas) within 2 days of ordering, stored on ice. Minced muscle was homogenized in 10 volumes of ice-cold “standard” buffer (50 mM Tris, pH 7.4, 0.1 M KOAc, 5 mM KCl, 2 mM dithiothreitol (DTT), 0.2 mM phenylmethylsulfonyl fluoride (PMSF), 10 μM leupeptin, 5 μM pepstatin, and 0.5 mM sodium azide) containing 5 mM ethylenediaminetetraacetic acid (EDTA) and 0.5% Triton X-100 using an Omni-Macro homogenizer. Myofibrils were recovered by low speed centrifugation (3000 rpm for 10 minutes) and washed 2 times in the Triton X-100 containing buffer to ensure removal of cellular membrane. Following the Triton washes, myofibrils were washed 3 times in “standard” buffer containing 2 mM magnesium acetate. A final wash in assay buffer (12 mM piperazine-1,4-bis(2-ethanesulfonic acid) (PIPES), pH 6.8, 60 mM KCl, 1 mM DTT) was performed and brought to 10% sucrose for flash freezing in liquid nitrogen and storage at −80° C.
Activation of Fast Skeletal Myofibrils: Fast fiber activators were identified by Measuring the enzymatic activity of muscle myofibril preparations using the proprietary PUMA (trademark) (see, e.g., U.S. Pat. Nos. 6,410,254, 6,743,599, 7,202,051, and 7,378,254) assay system. Myofibril preparations consisted of rabbit skeletal muscle (approximately 90% fast fibers) that had been mechanically homogenized and washed with a detergent (Triton X-100) to remove cellular membranes. This preparation retained all of the sarcomeric components in a native conformation and the enzymatic activity was still regulated by calcium. Compounds were tested using a myofibril suspension and a level of calcium sufficient to increase enzymatic activity of the myofibrils to 25% of their maximal rate (termed pCa25). Enzymatic activity was tracked via a pyruvate kinase and lactate dehydrogenase-coupled enzyme system. This assay regenerates myosin-produced ADP into ATP by oxidizing NADH, producing an absorbance change at 340 nm. The buffering system was 12 mM PIPES, 2 mM MgCl2, 1 mM DTT at pH 6.8 (PM12 buffer).
For `CCC1(C)C(=O)NC2(COC2)c2ccc(OC(F)F)nc21` (centres unmarked) [compound 146], the AC1.4 turned out to be 0.283 µM.

With `CC(C)(O)CC1(C)C(=O)NC2(COC2)c2ccc(Cl)cc21` (centres unmarked) [compound 137, 6-chloro-4-(2-hydroxy-2-methylpropyl)-4-methyl-2H-spiro[isoquinoline-1,3′-oxetan]-3(4H)-one], the AC1.4 was found to be 2.365 µM.

Turning to `CCC1(Cc2cccc(Cl)c2)C(=O)NC(C)(C)c2ccc(Br)cc21` (centres unmarked) [compound 80], the AC1.4 came out at 0.112 µM.

As for `CCC1(CC)C(=O)NC(C)(C)c2cc(Br)c(C#N)cc21` [compound 116], the AC1.4 was 0.274 µM.

With `CCC1(CC(=O)NCc2ccccc2)C(=O)NC(C)(C)c2ccc(Br)cc21` (centres unmarked) [compound 139], the AC1.4 worked out at 30.805 µM.

For `CC1(C)NC(=O)C(C)(C)c2nc(C#N)cnc21` [compound 153], the AC1.4 is 1.590 µM.

On to `COc1ccc2c(n1)C(C)(C)C(=O)NC21COC1` [compound 147], for which the AC1.4 stood at 2.346 µM.

On to `C=CCC1(C)C(=O)NC(C)(C)c2ccc(C#N)nc21` (centres unmarked) [compound 60], for which the AC1.4 amounted to 0.252 µM.

With `CC1(C)NC(=O)C(C)(CCO)c2cc(Cl)cnc21` (centres unmarked) [compound 159], the AC1.4 came to 11.374 µM.

With `CCC1(CC)C(=O)NC(C)(C)c2ncc(Cl)nc21` [compound 69], the AC1.4 stood at 0.485 µM.

`CCC1(CC)C(=O)NC2(COC2)c2ncc(Cl)nc21` [compound 68]: the AC1.4 came to 0.830 µM.

For `CC1(C)C(=O)NC2(COC2)c2ccc(C(F)F)nc21` [compound 169], the AC1.4 amounted to 1.730 µM.

For the molecule `CC1(C)NC(=O)C(C)(C)c2cc(Br)ccc21` [compound 51], the AC1.4 was determined as 0.093 µM.

For `CC1(C)NC(=O)C(C)(Cn2cccn2)c2nc(C#N)ccc21` (centres unmarked) [134b], the AC1.4 is 4.986 µM.

For the molecule `CC1(Cn2cccn2)C(=O)NC2(COC2)c2ccc(Cl)cc21` (centres unmarked) [compound 75], the AC1.4 is 1.174 µM.

Consider `CCC1(CCO)C(=O)NC2(COC2)c2ccc(C)nc21` (centres unmarked) [compound 102], for which the AC1.4 was determined as 8.474 µM.

Take `COC(=O)N1CCC2(CC1)C(=O)NC(C)(C)c1ccc(Cl)cc12` [compound 156]: the AC1.4 turned out to be 5.881 µM.

With `CCC1(CC)C(=O)NC(C)(C)c2ccc(Cl)nc21` [compound 84], the AC1.4 stood at 0.401 µM.

For `CC1(C)NC(=O)C(C)(Cn2cccn2)c2nc(C#N)ccc21` (centres unmarked) [134a], the AC1.4 came out at 0.626 µM.

For the molecule `C=CCC1(C)C(=O)NC(C)(C)c2ccc(Cl)nc21` (centres unmarked) [compound 76], the AC1.4 came out at 0.223 µM.

For the molecule `CCC1(CCCO)C(=O)NC(C)(C)c2ccc(Br)cc21` (centres unmarked) [compound 54], the AC1.4 is 0.596 µM.

On to `CC1(C)NC(=O)C(c2ccccc2)c2ccccc21` (centres unmarked) [compound 138], for which the AC1.4 was 7.955 µM.

For `C[C@H](O)CC1(C)C(=O)NC2(COC2)c2ccc(Cl)cc21` (mixture of isomers) [167b, rac-(4R)-6-chloro-4-[(2S)-2-hydroxypropyl]-4-methyl-2H-spiro[isoquinoline-1,3′-oxetan]-3(4H)-one], the AC1.4 stood at 0.869 µM.

Consider `CCC1(CC)C(=O)NC2(COC2)c2ncc(C#N)cc21` [compound 161], for which the AC1.4 came out at 1.987 µM.

For the molecule `CN(c1ccccc1)C1C(=O)NC(C)(C)c2ccc(Br)cc21.Cl` (centres unmarked) [compound 66], the AC1.4 was found to be 2.502 µM.

As for `CC1(C)NC(=O)C(C)(Cn2cccn2)c2nc(Cl)ccc21` (centres unmarked) [compound 70], the AC1.4 stood at 0.522 µM.

For `C#CCC1(C)C(=O)NC(C)(C)c2ccc(C#N)nc21` (centres unmarked) [compound 111], the AC1.4 worked out at 0.321 µM.

On to `CCC1(CC(F)F)C(=O)NC2(COC2)c2ccc(OC)nc21` (centres unmarked) [compound 145], for which the AC1.4 came out at 0.581 µM.

`CC1(C)C(=O)NC2(COC2)c2ccc(Cl)nc21` [compound 90]: the AC1.4 came to 2.555 µM.

Regarding `C=CCC1(C)NC(=O)C(CC)(CC)c2nc(Cl)ccc21` (centres unmarked) [compound 77], the AC1.4 came out at 7.898 µM.

Consider `CCC1(CC(F)F)C(=O)NC2(COC2)c2ccc(C(F)F)nc21` (centres unmarked) [compound 88], for which the AC1.4 worked out at 0.203 µM.

As for `CC1(C)NC(=O)C2(CCOCC2)c2cc(C#N)ccc21` [compound 62], the AC1.4 was greater than 39.200 µM.

For the molecule `Cc1ccc2c(n1)C(C)(CC(F)F)C(=O)NC21COC1` (centres unmarked) [92a], the AC1.4 came to 1.318 µM.

As for `CC1(C)NC(=O)C2(CCOCC2)c2cc(Br)ccc21` [compound 44], the AC1.4 is 5.982 µM.

Turning to `CC1(C)NC(=O)C(C)(C)c2cc(C#N)cnc21` [compound 58], the AC1.4 amounted to 5.040 µM.

Consider `CCC1(CCO)C(=O)NC2(COC2)c2ccc(C#N)cc21` (centres unmarked) [compound 165], for which the AC1.4 was found to be 1.202 µM.

For `CCC1(Cc2ccc(Cl)cc2)C(=O)NC(C)(C)c2ccc(Br)cc21` (centres unmarked) [compound 82], the AC1.4 amounted to 0.084 µM.

With `CC1(C)NC(=O)C(C)(Cc2cn[nH]c2)c2nc(C#N)ccc21` (centres unmarked) [compound 110], the AC1.4 stood at 3.478 µM.

As for `CC1(C)C(=O)NC2(COC2)c2ccc(F)cc21` [compound 157], the AC1.4 came out at 2.566 µM.

As to `CCC1(CCO)C(=O)NC2(COC2)c2ccc(OC(F)F)nc21` (centres unmarked) [compound 105], the AC1.4 was 4.313 µM.

For the molecule `CCC1(CCOC)C(=O)NC2(COC2)c2ccc(C)nc21` (centres unmarked) [compound 96], the AC1.4 was 5.393 µM.

For the molecule `Cc1ccc2c(n1)C(C)(CC(F)F)C(=O)NC21COC1` (centres unmarked) [92b], the AC1.4 came to 0.400 µM.

As to `CCC1(CC)C(=O)NC(C)(C)c2cc(Cl)c(C#N)cc21` [compound 34, 7-chloro-4,4-diethyl-1,1-dimethyl-3-oxo-1,2,3,4-tetrahydroisoquinoline-6-carbonitrile], the AC1.4 amounted to 0.229 µM.

In the case of `CCC1(CCO)C(=O)NC(C)(C)c2ccc(Br)cc21` (centres unmarked) [compound 115], the AC1.4 worked out at 0.474 µM.

As to `CCC1(CCF)C(=O)NC(C)(C)c2ccc(Br)cc21` (centres unmarked) [compound 81], the AC1.4 is 0.098 µM.

With `CCC1C(=O)NC(C)(C)c2ccc(Br)cc21` (centres unmarked) [compound 53], the AC1.4 stood at 0.711 µM.

As to `Cc1ccc2c(n1)C(C)(CC(F)F)C(=O)NC21COC1` (centres unmarked) [compound 95], the AC1.4 was 0.720 µM.

Turning to `CCC1(CC)C(=O)NC(C)(C)c2c(C#N)cccc21` [compound 63], the AC1.4 was 3.707 µM.

For the molecule `CCC1(CC(=O)O)C(=O)NC(C)(C)c2ccc(Br)cc21` (centres unmarked) [compound 91], the AC1.4 was found to be 20.240 µM.

In the case of `CCN(CC)C1C(=O)NC(C)(C)c2ccc(Br)cc21.Cl` (centres unmarked) [compound 65], the AC1.4 was found to be 1.052 µM.

For `CCC1(CCOC)C(=O)NC2(COC2)c2ccc(C#N)nc21` (centres unmarked) [compound 112], the AC1.4 is 1.437 µM.

Turning to `CCC1(CC)C(=O)NC(C)(C)c2c(OC)cc(OC)cc21` [compound 50], the AC1.4 is 0.763 µM.

As for `CC1(C)NC(=O)C(CCF)(CCF)c2cc(Br)ccc21` [compound 140], the AC1.4 turned out to be 0.199 µM.

`C=Cc1cnc2c(n1)C(CC)(CC)C(=O)NC21COC1` [compound 94]: the AC1.4 turned out to be 8.994 µM.

Regarding `CC1(C)NC(=O)C(C)(Cn2cccn2)c2nc(C#N)ccc21` (centres unmarked) [compound 107], the AC1.4 is 1.080 µM.

Turning to `CCC1(CC)C(=O)NC(C)(C)c2cc(C3CC3)c(C#N)cc21` [compound 98], the AC1.4 amounted to 2.085 µM.

As for `CCC1(CC)C(=O)NC2(COC2)c2ccc(Cl)cc21` [compound 43], the AC1.4 came to 0.051 µM.

`C[C@@H](O)CC1(C)C(=O)NC2(COC2)c2ccc(Cl)cc21` (mixture of isomers) [167a, rac-(4R)-6-chloro-4-[(2R)-2-hydroxypropyl]-4-methyl-2H-spiro[isoquinoline-1,3′-oxetan]-3(4H)-one]: the AC1.4 was 3.293 µM.

`CCC1(CC)C(=O)NC(C)(C)c2ccc(Cl)cc21` [compound 48]: the AC1.4 was less than 0.077 µM.

As for `CCC1(CC)C(=O)NC(C)(C(F)F)c2ccc(C#N)cc21` (centres unmarked) [compound 59], the AC1.4 is 0.381 µM.

Take `CCC1(CC)C(=O)NC2(COC2)c2ccc(COC(F)F)nc21` [compound 143, 2-[(difluoromethoxy)methyl]-8,8-diethyl-6H-spiro[1,6-naphthyridine-5,3′-oxetan]-7(8H)-one]: the AC1.4 came out at 2.830 µM.

Consider `CCC1(CC)C(=O)NC(C)(C)c2ccc(Cl)c(F)c21` [compound 141], for which the AC1.4 was less than 0.077 µM.

On to `CCC1(CC(F)F)C(=O)NC(C)(C)c2ccc(Br)cc21` (centres unmarked) [compound 83], for which the AC1.4 is less than 0.077 µM.

Turning to `CCC1(C)C(=O)NC(C)(C)c2ccc(Cl)nc21` (centres unmarked) [compound 71], the AC1.4 worked out at 0.367 µM.

Consider `CC1(C)C(=O)NC2(COC2)c2ccc(C#N)nc21` [compound 142], for which the AC1.4 was 2.377 µM.
